From patent publication US10485773B2, “Benzenesulfonamide derivatives and method for treating cancer” (GONGWIN BIOPHARM HOLDINGS CO., LTD., priority 2016, dated 2019)
pIC50: −log10 of the molar value. Where two headings read alike, the source gives them in different places.

Columns and labels:
[1] = first dissolution test in DMSO or water; conditions: for Total volume of DMSO for dissolving the p-TSA derivatives / Total volume of water for dissolving the p-TSA derivatives: first dissolution test, amount for a 3M solution in 0.5 mL, up to 15000 μL; for solubility: thermodynamic from solid
Procedure: Each of the powder of p-TSA derivatives was duplicated, placed in each 15 mL centrifuge tube, followed by adding 200 μL DMSO or 200 μL water and shaking for 10 to 20 seconds for dissolution observation. If the powder was not dissolved, additional DMSO or water was added, and then the mixture was shaken. The tube was left to stand for 10 minutes for observation if the powder was still not dissolved after adding 1 mL DMSO or 1 mL water. If the powder was still not dissolved after adding 5 mL DMSO or 5 mL water, additional 1 mL DMSO or 1 mL water was added, and then the mixture was shaken for 30 seconds. If the powder was still not dissolved after adding 10 mL DMSO or 10 mL water, the tube was left to stand for 12 to 16 hours and observed on the next day. DMSO or water was added into the tube having the undissolved p-TSA derivatives up to 15 mL, followed by shaking for 30 minutes for observation.

[2] = system: human non-small-cell lung cancer cell lines H460; test: SRB growth inhibition of lung cancer cells; format: cell-based
Procedure: (§1) After letting to stand for 10 minutes at room temperature, the supernatant of each well was removed, and each well was washed with 200 μL H2O once. […] Each of the plates was then placed in the laminar flow cabinet for 1 hour for air dry. 50 μL 0.4% sulforhodamine B (SRB) dye was added into each well of the 96-well plate. […] Each of the plates was then placed in the laminar flow cabinet for 40 minutes to 1 hour for air dry. 1×Tris-Base solution with pH 7.0 to 7.4 was added to each well of the 96-well plate to dissolve the protein complex formed in the bottom of each well, followed by tapping the 96-well plate, allowing the complex in each well to be dissolved uniformly. Absorption of each well under 515 nm was read. […] Each of the experimental group was performed in triplet.

[3] = system: human liver cancer cell lines Hep3B; test: SRB growth inhibition of liver cancer cells; format: cell-based
Procedure: as §1

[4] = Homo sapiens, NCI-H460, 48 h, derivative dissolved in DMSO, 48 hours, SRB, read-out: IC50 of H460 in DMSO
[5] = Homo sapiens, Hep3B, 48 h, derivative dissolved in DMSO, 48 hours, SRB, read-out: IC50 of Hep3B in DMSO
[6] = Homo sapiens, NCI-H460, 48 h, derivative dissolved in water, 48 hours, SRB, read-out: IC50 of H460 in water
[7] = Homo sapiens, Hep3B, 48 h, derivative dissolved in water, 48 hours, SRB, read-out: IC50 of Hep3B in water
[8] = derivative dissolved in DMSO, 48 hours, SRB, read-out: IC50 of H460 in DMSO
[9] = derivative dissolved in DMSO, 48 hours, SRB, read-out: IC50 of Hep3B in DMSO

| Compound | Total volume of DMSO for dissolving the p-TSA derivatives ([1]; DMSO) | Total volume of water for dissolving the p-TSA derivatives ([1]; water) | pIC50 [2, 4] | pIC50 [3, 5] | further results |
| --- | --- | --- | --- | --- | --- |
| Cc1ccc(S(=O)(=O)N2CC[C@@H](O)C2)cc1 [PTSA035] | 490 µL | insoluble in 15000 μL | 2.55 | 2.64 | – |
| Cc1ccc(S(=O)(=O)N2CC(C(=O)[O-])C2)cc1.[Na+] [PTSA061] | 2500 µL | 750 µL | – | – | pIC50 ([2]; Homo sapiens, NCI-H460, 48 h, read-out: IC50 of H460 in DMSO): < 2.65; pIC50 ([2]; Homo sapiens, NCI-H460, 48 h, read-out: IC50 of H460 in water): < 2.06; pIC50 ([3]; Homo sapiens, Hep3B, 48 h, read-out: IC50 of Hep3B in DMSO): < 2.65; pIC50 ([3]; Homo sapiens, Hep3B, 48 h, read-out: IC50 of Hep3B in water): < 2.06 |
| Cc1ccc(S(=O)(=O)NC(CO)CO)cc1 [PTSA029] | 500 µL | insoluble in 15000 μL | 2.71 | 2.52 | – |
| Cc1ccc(S(=O)(=O)NC(C)CO)cc1 (stereo not drawn) [PTSA025] | 560 µL | insoluble in 15000 μL | 2.50 | 2.45 | – |
| NS(=O)(=O)c1ccc(C(=O)O)cc1 [PTSA004] | 960 (with pipetting) μL | insoluble in 15000 μL | 2.01 | < 2.15 | – |
| Cc1ccc(S(=O)(=O)NCC(C)O)cc1 (stereo not drawn) [PTSA024] | 515 µL | insoluble in 15000 μL | 2.49 | 2.42 | – |
| Cc1ccc(S(=O)(=O)N2CCC[C@H]2CO)cc1 [PTSA033] | 500 µL | insoluble in 15000 μL | 2.85 | 2.76 | – |
| Cc1ccc(S(=O)(=O)N[C@@H](C)C(=O)O)cc1 [PTSA045] | 2000 µL | insoluble in 15000 μL | < 2.52 | < 2.52 | – |
| Cc1ccc(S(=O)(=O)NC2CCNCC2)cc1.Cl [PTSA052] | 2000 µL | 5000 µL | 3.04 | 3.04 | pIC50 [2, 6]: 2.96; pIC50 [3, 7]: 3.02 |
| Cc1ccc(S(=O)(=O)N2CCC(O)C2)cc1 (stereo not drawn) [PTSA036] | 530 µL | insoluble in 15000 μL | 2.59 | 2.47 | – |
| Cc1ccc(S(=O)(=O)N2CCCC2C(=O)O)cc1 (stereo not drawn) [PTSA047] | 2000 µL | 2500 µL | < 2.52 | < 2.52 | pIC50 [2, 6]: < 2.52; pIC50 [3, 7]: < 2.52 |
| CON=C1CN(S(=O)(=O)c2ccc(C)cc2)C1 [PTSA072] | 4500 µL | insoluble in 15000 μL | < 2.95 | < 2.95 | – |
| Cc1ccc(S(=O)(=O)N2CC(F)C2)cc1 [PTSA065] | 2500 µL | insoluble in 15000 μL | 2.88 | 2.84 | – |
| Cc1ccc(S(=O)(=O)NC[C@H](C)O)cc1 [PTSA023] | 500 µL | insoluble in 15000 μL | 2.54 | 2.58 | – |
| Cc1ccc(S(=O)(=O)N2CC3(COC3)C2)cc1 [PTSA041] | 4000 µL | insoluble in 15000 μL | < 2.70 | < 2.70 | – |
| Cc1ccc(S(=O)(=O)NCC(=O)O)cc1 [PTSA044] | 600 µL | insoluble in 15000 μL | 2.10 | 2.04 | – |
| Cc1ccc(S(=O)(=O)N2CC(CO)C2)cc1 [PTSA069] | 880 µL | insoluble in 15000 μL | 2.59 | 2.44 | – |
| Cc1ccc(S(=O)(=O)NC(=O)NS(=O)(=O)c2ccc(C)cc2)cc1 [PTSA018] | 2000 µL | 2500 µL | – | – | pIC50 [2, 6]: < 2.52; pIC50 [2, 8]: < 2.52; pIC50 [3, 7]: < 2.52; pIC50 [3, 9]: < 2.52 |
| COC(=O)NS(=O)(=O)c1ccc(C)cc1 [PTSA011] | 560 µL | insoluble in 15000 μL | 2.26 | 2.34 | – |
| Cc1ccc(S(=O)(=O)NCCOCCO)cc1 [PTSA022] | 505 µL | insoluble in 15000 μL | 2.44 | 2.33 | – |
| CCOC(=O)NS(=O)(=O)c1ccc(C)cc1 [PTSA015] | 815 µL | 500 µL | – | – | pIC50 [2, 6]: 2.30; pIC50 [2, 8]: 2.32; pIC50 [3, 9]: 2.24 |
| Cc1ccc(S(=O)(=O)N2CCC(N)CC2)cc1.Cl [PTSA053] | 15000 µL | 2500 µL | – | – | pIC50 [2, 6]: 3.16; pIC50 [3, 7]: 3.11 |
| Cc1ccc(S(=O)(=O)NC2CCN(Cc3ccccc3)CC2)cc1.Cl [PTSA052i] | 4000 µL | insoluble in 15000 μL | 3.85 | 3.86 | solubility ([1]; DMSO, organic solvent or mixture): 143 mg/mL; solubility ([1]; water): < 50 mg/mL |
| Cc1ccc(S(=O)(=O)NCCS(=O)(=O)O)cc1 [PTSA048] | 2000 µL | 10000 µL | < 2.52 | < 2.52 | pIC50 [2, 6]: < 2.52; pIC50 [3, 7]: < 2.52 |
| Cc1ccc(S(=O)(=O)N[C@@H](CO)C(=O)O)cc1 [PTSA046] | 845 µL | insoluble in 15000 μL | < 2.00 | < 2.00 | – |
| Cc1ccc(S(=O)(=O)NCCO)cc1 [PTSA020] | 490 µL | 10000 µL | 2.58 | 2.58 | pIC50 [2, 6]: < 3.00; pIC50 [3, 7]: < 3.00 |
| Cc1ccc(S(=O)(=O)N2CCNCC2)cc1 [PTSA038] | 680 µL | insoluble in 15000 μL | 2.79 | 2.80 | – |
